Laboratory results as given in publication PMC6222476 (Molecules : A Journal of Synthetic Chemistry and Natural …, 2018).

How the values were obtained:
[1] = system: NIH/3T3 normal murine embryonic fibroblast cell line; assay: in vitro; assay type: cell-based; details: SRB assay
Experimental: (§1) All the newly synthesized compounds were screened for their in vitro anticancer activity against six cancer cell lines: SK-MEL-2, MCF-7, IMR-32, MG-63, HT-29 and Hep-G2 by SRB assay, using adriamycin as a standard drug. All the synthesized derivatives 4(a–n) were also tested for their cytotoxic effect on normal cell lines i.e., NIH/3T3 (murine embryonic fibroblast by the SRB assay method. The cell lines were grown in RPMI 1640 medium containing 10% fetal bovine serum and 2 mM L-glutamine. For the present screening experiments, cells were inoculated into 96 well microtiter plates in 90 µL at 5000 cells per well. After cell inoculation, the microtiter plates were incubated at 37 °C, 5% CO2, 95% air and 100% relative humidity for 24 h prior to addition of experimental drugs. Experimental drugs were solubilized in appropriate solvent to prepare stock of 10^−2 concentration. At the time of experiment four 10-fold serial dilutions were made using complete medium. Aliquots of 10 µL of these different drug dilutions were added to the appropriate micro-titer wells already containing 90 µL of medium, resulting in the required final drug concentrations. After compound addition, plates were incubated at standard conditions for 48 h. and assay was terminated by the addition of cold trichloroacetic acid (TCA). Cells were fixed in situ by the gentle addition of […] (final concentration, 10% TCA) and incubated for 60 min at 4 °C. The supernatant was discarded; the plates were washed five times with tap water and air dried.
(§2) Sulforhodamine B (SRB) solution (50 µL) at 0.4% (w/v) in 1% acetic acid was added to each of the wells, and plates were incubated for 20 min at room temperature. After staining, unbound dye was recovered and the residual dye was removed by washing five times with 1% acetic acid. The plates were air dried. Bound stain was subsequently eluted with 10 mM trizma base, and the absorbance was read on an ELISA plate reader at a wavelength of 540 nm with 690 nm reference wavelength. All the tests were repeated in at least three independent experiments at the concentrations of 10, 20, 40 and 80 µg/mL [57].

[2] = system: IMR-32 neuroblastoma cell line; assay: cells; assay type: cell-based, human; details: SRB assay, 48 h
Experimental: as §1, §2

[3] = system: SK-MEL-2 human melanoma cancer cell line; assay: cells; assay type: cell-based; details: SRB assay, 48 h, read-out: GI50 SKMEL-2
Experimental: as §1, §2

[4] = system: MG-63 human osteosarcoma cell line; assay: cells; assay type: cell-based; details: SRB assay, 48 h
Experimental: as §1, §2

[5] = system: MCF-7 human breast cancer cell line; assay: cells; assay type: cell-based; details: SRB assay, 48 h
Experimental: as §1, §2

[6] = system: HT-29 human colon cancer cell line; assay: cells; assay type: cell-based; details: for anticancer activity compared with standard drug adriamycin, HT-29: HT-29 (human colon cancer) cell line; for GI50: SRB assay, 48 h, HT-29
Experimental: as §1, §2

[7] = system: Hep-G2 human hepatoma cell line; assay: cells; assay type: cell-based; details: for GI50: SRB assay, 48 h, Hep-G2
Experimental: as §1, §2

Compound | GI50 [1] [µM] | GI50 [2] [µM] | GI50 [3] [µM] | GI50 [4] [µM] | GI50 [5] [µM] | anticancer activity compared with standard drug adriamycin, HT-29 [6] | GI50 [6] [µM] | GI50 [7] [µM] | anticancer activity compared with standard drug Adriamycin, Hep-G2 ([7]; Hep-G2 (human hepatoma) cell line)
CCOP(=O)(OCC)C(NN=C1C(=O)Nc2ccccc21)c1ccc(OC)cc1 (centres unmarked) [4d, (Z)-Diethyl(4-methoxyphenyl)(2-(2-oxoindolin-3-ylidene)hydrazinyl)methylphosphonate] | > 250 | > 100 | 65.7 | < 0.1 | > 100 | equipotent | < 0.1 | 45.3 | –
CCOP(=O)(OCC)C(NN=C1C(=O)Nc2ccccc21)c1ccc(F)cc1 (centres unmarked) [4c, Diethyl(4-flurophenyl)(2-(2-oxoindolin-3-ylidene)hydrazinyl)methylphosphonate] | > 250 | > 100 | 57.5 | < 0.1 | > 100 | – | 20.8 | 32 | –
CCOP(=O)(OCC)C(NN=C1C(=O)Nc2ccccc21)c1ccccc1 (centres unmarked) [4a, Diethyl(phenyl)(2-(2-oxoindolin-3-ylidene)hydrazinyl)methylphosphonate] | > 250 | > 100 | 56.9 | < 0.1 | > 100 | – | 56.9 | 55.2 | –
CCOP(=O)(OCC)C(NN=C1C(=O)Nc2ccccc21)c1ccco1 (centres unmarked) [4j, (Z)-Diethylfuran-2-yl(2-(2-oxoindolin-3-ylidene)hydrazinyl)methylphosphonate] | > 250 | > 100 | 93.9 | < 0.1 | > 100 | equipotent | < 0.1 | 44.6 | –
CCOP(=O)(OCC)C(NN=C1C(=O)Nc2ccccc21)c1ccc(OC)c(OC)c1 (centres unmarked) [4e, Diethyl(3,4-dimethoxyphenyl)(2-(2-oxoindolin-3-ylidene)hydrazinyl)methylphosphonate] | > 250 | > 100 | 55.2 | < 0.1 | > 100 | equipotent | < 0.1 | 12.2 | –
CCOP(=O)(OCC)C(N/N=C1\C(=O)Nc2ccccc21)c1cccs1 (centres unmarked) [4i, (Z)-Diethyl(2-(2-oxoindolin-3-ylidene)hydrazinyl)(thiophen-2-yl)methylphosphonate] | > 250 | > 100 | 55.5 | < 0.1 | > 100 | equipotent | < 0.1 | < 0.1 | equipotent
